Data: patent US8093207B2, “Fast-acting oral peptide pharmaceutical products” (Unigene Laboratories, Inc., priority 2005, dated 2012)

How the values were obtained:
[1] = Absorption of non-sCT peptides from non-enteric coated capsules given orally to fasted dogs; conditions: in vivo, 2.4 mg; Table 9: dog, oral non-enteric capsule, at least 500 mg citric acid, 50 mg lauroylcarnitine; ± sem
Description: Size 00 UPMC capsules were each filled with a powdered blend consisting of at least 500 mg citric acid, 50 mg lauroylcarnitine and 1 of the indicated peptides. Each week eight fasted dogs were orally administered 1 of the uncoated capsules. After administration of the capsule, samples of blood were taken at 15 minute intervals from an indwelling catheter for up to 4 hours. The blood samples were centrifuged and the resulting plasma supernatants were stored frozen at −20° C.

[2] = Blood levels of salmon calcitonin after direct injection of active components into duodenum, ilium or colon; type: in vivo; conditions: other: injected directly into the duodenum
Excerpt: The pH-lowering agent is believed to lower the local pH (where the active agent has been released) to levels below the optimal range for many intestinal proteases. This decrease in pH reduces the proteolytic activity of the intestinal proteases, thus affording protection to the peptide from potential degradation should the peptide be present within the intestine. The activity of these proteases is diminished by the temporarily acidic environment provided by the invention. It is preferred that sufficient acid be provided that local intestinal pH is lowered temporarily to 5.5 or below, preferably 4.7 or below and more preferably 3.5 or below. The sodium bicarbonate test described below (in the section captioned “the pH-Lowering Agent”) is indicative of the required acid amount. […] The absorption enhancers of the invention synergistically promote peptide absorption into the blood while conditions of reduced proteolytic activity prevail. The mechanism by which the invention is believed to accomplish the goal of enhanced bioavailability is aided by having active components of the finished pharmaceutical product released together as simultaneously as possible.

in vivo = experiment: in vivo
Description: Female Wistar rats (250-275 g) (n=3 for each formulation) were anesthetized with ketamine and xylazine prior to the insertion of a cannula in the carotid artery. The cannula was fitted to a three way valve through which blood was sampled and replaced with physiological saline. A midline incision was made in the abdominal cavity and 0.5 ml of formulation was injected directly into the exposed duodenum. The pH of the formulation was adjusted by mixing varying amounts of equal molar concentrations of citric acid and sodium citrate. Blood (0.5 ml) was collected before and at 5, 15, 30, 60 and 120 minutes after the administration of the formulation. Samples of blood were centrifuged for 10 minutes at 2600 g and the resulting plasma supernatant was stored at −20° C. The concentration of calcitonin in plasma was determined by a competitive radioimmunoassay. The absolute bioavailability (i.e., relative to an intravenous dose of calcitonin) was calculated from the areas under the curve obtained from plots of the plasma concentration of calcitonin as a function of time.
Samples of blood were removed at various times and analyzed for the indicated peptide as described previously.

[3] = cited from earlier work
[4] = Absorption of sCT from orally administered capsules (enteric-coated or uncoated) in fasted dogs, plasma ELISA; type: in vivo, dog; conditions: for Tmax / Cmax: plasma
Excerpt: Size 00 UPMC (hydroxypropylmethyl cellulose) capsules were each filled with a powdered blend consisting of citric acid, lauroylcarnitine, and salmon calcitonin (sCT). Half the capsules were coated with an enteric coating solution of […] L30D-55 (a methacrylic acid co-polymer with methacrylic acid methyl ester, an enteric coating available from ROUM Tech Inc., Maidan, Mass.), and the remaining capsules were not enteric coated. The coating process corresponded to that taught in U.S. Pat. No. 6,086,918 at col. 11, line 50 to col. 12, line 11. Eight fasted dogs were each orally administered 1 uncoated capsule and 2 weeks later they were each orally administered an enteric-coated capsule. After administration of each capsule, samples of blood were taken at 15 minute intervals from an indwelling catheter for up to 4 hours. The blood samples were centrifuged and the resulting plasma supernatants were stored frozen at −20° C. The plasma samples were subsequently analyzed for sCT by a direct ELISA. […] Nearly three times as much sCT was detected in the plasma of dogs given enteric-coated capsules than non-coated capsules. The maximum concentration of sCT in dogs orally administered uncoated capsules was seen within 30 minutes after their administration. The maximum concentration of sCT in dogs given enteric-coated capsules was seen 98 minutes after their administration. […] The increased speed can be advantageous, especially in the case of peptides wherein speed is more important than overall bioavailability (e.g., pain relievers). There can also be an advantage in production efficiency when the enteric coating step is not required.
Size 00 UPMC (hydroxypropylmethyl cellulose) capsules were each filled with a powdered blend consisting of the indicated amount of citric acid, lauroylcarnitine, sucrose and salmon calcitonin (sCT). Each week eight fasted dogs were each orally administered 1 of the uncoated capsules. After administration of the capsule, samples of blood were taken at 15 minute intervals from an indwelling catheter for up to 4 hours. The blood samples were centrifuged and the resulting plasma supernatants were stored frozen at −20° C. The plasma samples were subsequently analyzed for sCT by a direct ELISA. […] In the absence of citric acid but in the presence of lauroylcarnitine the maximum concentration of sCT in the plasma of dogs decreased by 80%. In the absence of citric acid and lauroylcarnitine, the maximum concentration of sCT in dogs decreased by 99%.

[5] = Dissolution of human insulin in water with or without citric acid
[6] = female, Wistar, rat, in vivo, 0.1 mg
[7] = female, Wistar, rat, in vivo, 1 mg
[8] = Table 6: rat, intraduodenal, insulin 1 mg with citric acid 48 mg only

## Cc1cc(O)cc(C)c1C[C@H](N)C(=O)N[C@H](CCCNC(=N)N)C(=O)N[C@@H](Cc1ccccc1)C(=O)N[C@@H](CCCCN)C(N)=O [Dmt-DALDA, H-2,6-dimethyltyrosine-D-Arginine-Phenylalanine-Lysine-NH2]
[1]
  Cmax: 7.48 ± 1.49 ng/mL
  Tmax: 28 min

## CC(C)C[C@H](NC(=O)[C@H](CCCCN)NC(=O)CNC(=O)[C@H](CC(C)C)NC(=O)[C@@H](NC(=O)[C@@H]1CSSC[C@H](N)C(=O)N[C@@H](CO)C(=O)N[C@@H](CC(N)=O)C(=O)N[C@@H](CC(C)C)C(=O)N[C@@H](CO)C(=O)N[C@@H]([C@@H](C)O)C(=O)N1)C(C)C)C(=O)N[C@@H](CO)C(=O)N[C@@H](CCC(N)=O)C(=O)N[C@@H](CCC(=O)O)C(=O)N[C@@H](CC(C)C)C(=O)N[C@@H](Cc1c[nH]cn1)C(=O)N[C@@H](CCCCN)C(=O)N[C@@H](CC(C)C)C(=O)N[C@@H](CCC(N)=O)C(=O)N[C@H](C(=O)N[C@@H](Cc1ccc(O)cc1)C(=O)N1CCC[C@H]1C(=O)N[C@@H](CCCNC(=N)N)C(=O)N[C@H](C(=O)N[C@@H](CC(N)=O)C(=O)N[C@H](C(=O)NCC(=O)N[C@@H](CO)C(=O)NCC(=O)N[C@H](C(=O)N1CCC[C@H]1C(N)=O)[C@@H](C)O)[C@@H](C)O)[C@@H](C)O)[C@@H](C)O [Salmon Calcitonin]
[2]
  Tmax: 5 to 15 min
In vivo; female, Wistar, rat, in vivo
  Absolute Bioavailability: 4.81%
In vivo; [6]
  Cmax: 27.7 ng/mL
In vivo; female, Wistar, rat, in vivo, 1 mg, Absolute Bioavailability
  bioavailability: 0.096%
In vivo; female, Wistar, rat, in vivo, Absolute Bioavailability
  bioavailability: 4.53%
In vivo; rat, in vivo
  Increase in absolute bioavailability: 50 fold
[3]; following subcutaneous administration in man
  half-life: 20 to 40 min
[3]; nasally administered, 200 International units
  peak levels at which effective against osteoporosis: ≥ 10 picograms per milliliter
[3]; notwithstanding rapid decrease in blood levels
  duration of beneficial effect on osteoclasts: more than 24 hours
[3]; patients, high peak levels
  peak levels at which some patients report gastrointestinal distress: ≥ 200 picograms per milliliter
[3]; subcutaneous administration, 100 International units
  peak serum concentration: about 250 picograms per milliliter
[4]; Table 8, dog: absence of citric acid and lauroylcarnitine
  Decrease of maximum concentration of sCT: 99%
[4]; Table 8, dog: absence of citric acid but presence of lauroylcarnitine
  Decrease of maximum concentration of sCT in plasma: 80%
[4]; Table 8: dog, oral non-enteric capsule, citric acid 0, lauroylcarnitine 0, sucrose 805 mg, sCT 5.31 mg
  Cmax (maximum plasma concentration sCT corrected to 1 mg dose): 0.018 ± 0.012 ng/mL
[4]; Table 8: dog, oral non-enteric capsule, citric acid 824 mg, lauroylcarnitine 0, sucrose 0, sCT 5.31 mg
  Cmax (maximum plasma concentration sCT corrected to 1 mg dose): 4.612 ± 2.766 ng/mL
[4]; dog, po, 5.31 mg, Table 8: dog, oral non-enteric capsule, citric acid 0, lauroylcarnitine 0, sucrose 805 mg, sCT 5.31 mg, sCT only detected in 1 of 8 dogs, read-out: Tmax (converted)
  Tmax: 225 min
[4]; dog, po, 5.31 mg, Table 8: dog, oral non-enteric capsule, citric acid 824 mg, lauroylcarnitine 0, sucrose 0, sCT 5.31 mg, read-out: Tmax (converted)
  Tmax: 24 min
[4]; dog, po, 5.37 mg, Table 8: dog, oral non-enteric capsule, citric acid 679 mg, lauroylcarnitine 67 mg, sucrose 0, sCT 5.37 mg, read-out: Tmax (converted)
  Tmax: 26 min
[4]; dog, po, 6.17 mg, Table 8: dog, oral non-enteric capsule, citric acid 0, lauroylcarnitine 70 mg, sucrose 712 mg, sCT 6.17 mg, read-out: Tmax (converted)
  Tmax: 41 min
[4]; Table 7: dog, oral capsule, enteric coat no, citric acid 643 mg, lauroylcarnitine 66 mg, sCT 13.07 mg, ± sem
  Cmax: 3.29 ± 0.823 ng/mL
[4]; Table 7: dog, oral capsule, enteric coat no, citric acid 643 mg, lauroylcarnitine 66 mg, sCT 13.07 mg, ± sem, read-out: Tmax (time when maximum plasma sCT concentration detected) (converted)
  Tmax: ≤ 30 min
[4]; Table 7: dog, oral capsule, enteric coat yes, citric acid 632 mg, lauroylcarnitine 65 mg, sCT 12.84 mg, ± sem
  Cmax: 15.8 ± 4.2 ng/mL
[4]; Table 7: dog, oral capsule, enteric coat yes, citric acid 632 mg, lauroylcarnitine 65 mg, sCT 12.84 mg, ± sem, read-out: Tmax (time when maximum plasma sCT concentration detected) (converted)
  Tmax: 98 min
[4]; Table 8: dog, oral non-enteric capsule, citric acid 0, lauroylcarnitine 70 mg, sucrose 712 mg, sCT 6.17 mg
  Cmax: 1.02 ± 0.57 ng/mL
[4]; Table 8: dog, oral non-enteric capsule, citric acid 679 mg, lauroylcarnitine 67 mg, sucrose 0, sCT 5.37 mg
  Cmax: 5.43 ± 3.2 ng/mL

## NC(=O)CC[C@@H]1NC(=O)[C@H](Cc2ccccc2)NC(=O)[C@H](Cc2ccc(O)cc2)NC(=O)[C@@H](N)CSSC[C@@H](C(=O)N2CCC[C@H]2C(=O)N[C@@H](CCCN=C(N)N)C(=O)NCC(N)=O)NC(=O)[C@H](CC(N)=O)NC1=O [[Arg^8]-Vasopressin, [Arg^8]-vasopressin]
In vivo; [6]
  Cmax: 24.3 ng/mL
  bioavailability: 8.1%
In vivo; [7]
  Cmax: 0.62 ng/mL
  bioavailability: 0.38%

## Human Insulin: peptide pharmaceutical frequently administered by injection
[5]; in the absence of citric acid
  dissolution in water: could not even be dissolved in water
[5]; in the presence of citric acid
  dissolution in water: all of the peptide was easily dissolved
In vivo; Table 6, rat: lauroylcarnitine included vs citric acid alone
  Increase in absolute bioavailability: 10 fold
In vivo; [8]
  Absolute Bioavailability: 0.07%
  Peak Plasma Peptide: 0.56 ng/mL
In vivo; Table 6: rat, intraduodenal, peptide 0.1 mg (insulin 1 mg) with citric acid 48 mg and lauroylcarnitine 5 mg
  Peak Plasma Peptide: 18.3 ng/mL
